We go through four compounds from patent US20230167108A1, “CRYSTAL OF IMIDAZOPYRIDINONE COMPOUND OR SALT THEREOF” (Kissei Pharmaceutical Co., Ltd., priority 2020, published 2023).

One data set concerns the target T1, human PHD2184-418 (Homo sapiens, UniProt Q9GZT9).
T1 construct: containing amino acid residues 184 to 418 of the protein represented by CAC42509; histidine tag (N); made in house; host or cells: E. coli BL21 (DE3), pET-30a (+) vector
The data set is described as follows: PHD2 inhibitory test (fluorescence polarization, FITC-labeled HIF-1α556-574). In kind it is binding. To be noted: 2 μM 2-oxoglutarate, 37° C. for 60 minutes. Here is the method: Test Example 1 PHD2 Inhibitory Test
(1) Expression and Preparation of Human […]
Human PHD2184-418 is containing amino acid residues 184 to 418 of the protein represented by CAC42509 (GenBank accession ID) was expressed and prepared by the following method.
An expression construct of human PHD2184-418 containing an N-terminal histidine tag was introduced into pET-30a (+) vector, and the sequence was confirmed. This vector was introduced into BL21 (DE3) strain and cultured at 37° C. in LB medium containing antibiotics. After culturing, a cell lysis solution was added to the cells, and then the cells were disrupted and suspended by sonication. The disrupted suspension was centrifuged, and the supernatant was purified by Ni column to give human PHD2184-418.
Human HIF-1α556-574 (FITC-labeled HIF-1α556-574), containing FITC-Ahx at the N-terminal of HIF-1α556-574 containing amino acid residues 556 to 574 (partial peptide) of human HIF-1α, was used as a substrate. Using FITC-labeled HIF-1α556-574, the competitive inhibition between 2-oxoglutarate and the test compound ([…]) was evaluated based on the change in fluorescence polarization of FITC-labeled HIF-1α556-574 by the following method.
An enzyme (human PHD2184-418) and the substrate were diluted with an assay buffer (pH 7.4) containing 10 mM HEPES, 150 mM NaCl, 10 μM MnCl2-4H2O, 2 μM 2-oxoglutarate and 0.05% Tween-20. […]

Data set [1] is described as follows: Rat PK study: concentration of compound in large intestine tissue and plasma. It is filed as in vivo. The conditions noted are these: 3 mg/kg oral, non-fasted SD rats. Here is the method:
Test Example 3 Concentration of Compound in Large Intestine Tissue
The test compound (3 mg/kg/5 mL) prepared with 0.05% methylcellulose was orally administered to non-fasted rats (SD, 8-week-old, male, T SLC). Blood samples were collected from jugular vein 0.25, 0.5, 1, 2, 4, 6 and […] hours after the administration. Laparotomy was performed under isoflurane anesthesia, and the large intestine was isolated. The collected distal large intestine (about 5 cm) was cut open, and then the large intestine extracted was washed with saline on a dish. After washing, the large intestine was minced with small scissors. About 150 mg thereof was moved to a tube. To the tube was added 100 μL of saline, and the mixture was homogenized using shake master (1000 rpm×30 minutes). Samples were prepared by the addition with quadruple volume of saline as the final volume. The concentrations of the test compound in the large intestine tissue and the plasma were measured through a quantitative analysis using liquid chromatography-mass spectrometry (LC/MS).
Cmax: maximum plasma concentration of the test compound in the case of oral administration (ng/mL) AUC: area under the plasma test compound concentration-time curve (ng*min/mL) Plasma: plasma test compound concentration after 8 hours (ng/mL) Colon: concentration of the test compound in the large intestine tissue after hours (ng/g) C/P: ratio of the above Colon and Plasma

In data set [2] the test system is TNBS induced colitis model rat. The experiment in a line: Therapeutic effect in colitis model (suppression of intestinal permeability of FITC). The conditions noted are these: 3 mg/kg orally once a day for 3 days, serum FITC, mean. It is filed as in vivo. On the procedure: Test Example 2 Therapeutic Effect in Colitis Model
(1) TNBS Induced Colitis Model Rat
Thus, the suppressive effect on the intestinal permeability based on oral administration of the test compound was evaluated as an indicator of medicinal efficacy.
SD male rats: 8-week-old SIX (Japan SLC) were used, Under pentobarbital anesthesia, 300 μL of 28 mg/mL TNBS which was adjusted with 50% ethanol was administered at a point 8 cm from the anus in the large intestine to cause inflammation. To the solvent-treated group was administrated 300 μL of 50% ethanol. Animals were fasted for 48 hours prior to administration of TNBS. The test compound (3 mg/kg) prepared with 0.05% methylcellulose solution was orally administered once a day from the next day, and it was administered for a total of 3 days. After administering for 3 clays, 50 mg/kg FITC was orally administered 4 hours after the administration of the test compound. Blood samples were collected from jugular vein under isoflurane anesthesia after 4 hours. The serum was centrifuged, and fluorescence intensity was detected by PHERAstar FSX (BMG Labtech) to measure the concentration of FITC permeating into circulating blood through the mesentery. The suppressive rate on the intestinal permeability of the test compound was calculated based on the value of the test substance-free group as 0 and the value of the TNBS-untreated group as 100.

Data set [3] is described as follows: Solid stability test (physicochemical and chemical stability of crystals). The conditions noted are these: open condition at 40° C., 1 month; for Amount of the mass change of the compound 1: HPLC area normalization; for Properties: appearance; for Crystal form change: powder X-ray diffraction. An excerpt: Test Example 4: Solid Stability Test
The physicochemical stability and chemical stability for the crystals of the compound 1 (crystal forms I to III), the crystals of the methanesulfonic acid salt of the compound 1 (crystal forms I, II and IV), the crystals of the hydrochloride (crystal forms I and III), the crystal form I of the p-toluenesulfonic acid salt, the crystal form I of the sodium salt and the crystal form I of the calcium salt were examined.
Physicochemical stability: Each crystal was stored under open condition at 40° C. The powder X-ray diffraction of the sample was measured at the initial point and 1 month later, and the change in crystal form Was confirmed. The change in properties was also observed at the same time. Chemical stability: Each crystal was stored under open condition at 40° C. The mass of the compound 1 in the sample was measured under the following HPLC measurement conditions at the initial point and 1 month later.
Detector: Ultraviolet and visible absorptiometer/wavelength: 225 nm
Column: L-column 2 ODS, 3 μm, 4.6×150 mm (Chemicals Evaluation and Research Institute)
Column temperature: Constant temperature around 40° C. Flow rate: 1.0 mL/min Mobile phase A: Potassium dihydrogenphosphate and dipotassium hydrogenphosphate aqueous solution adjusted to 10 mmol/L with water Mobile phase B: Acetonitrile Mobile phase ratios: 0 to 30 minutes: mobile phase A/mobile phase B=88/12 30 to 50 minutes: mobile phase A/mobile phase B=88/12 to 25/75 50 to 55 minutes: mobile phase A/mobile phase B=25/75 55 to 55.01 minutes: mobile phase A/mobile phase B=25/75 to 88/12 55.01 to 75 minutes: mobile phase Airmobile phase B=88/12 Amount of injection: 5 μL Sample cooler: 4° C. Dissolution solvent: Mixed solution (mobile phase A/acetonitrile=75/25) Sample solution: Sample was dissolved in dissolution solvent and adjusted to about 1 mg/mL
Excluding the peaks derived from the blank, the peak areas of the compound 1 and an analogous substance were measured by automatic integration, and the mass of the compound 1 was calculated by area normalization method. Further, the amount of the mass change of the compound 1 after the storage was calculated.

Where only a bound is given, the exact number is not on record here.

T1 sequence (Q9GZT9 184-418): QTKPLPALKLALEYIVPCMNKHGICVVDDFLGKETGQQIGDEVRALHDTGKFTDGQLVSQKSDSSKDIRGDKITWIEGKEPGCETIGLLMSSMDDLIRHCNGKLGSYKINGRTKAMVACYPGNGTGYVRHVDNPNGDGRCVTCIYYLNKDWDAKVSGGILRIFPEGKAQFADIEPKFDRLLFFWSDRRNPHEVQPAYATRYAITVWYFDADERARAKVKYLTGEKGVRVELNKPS

As for `Cn1c(C(=O)O)cnc1CN1CC[C@H](n2c(=O)n(-c3ccc(-c4ccc(C(=O)O)cc4)nc3)c3cccnc32)C1` [Compound 1, 2-{[(3S)-3-{1-[6-(4-Carboxyphenyl)pyridin-3-yl]-2-oxo-2,3-dihydro-1H-imidazo[4,5-b]pyridin-3-yl}pyrrolidin-1-yl]methyl}-1-methyl-1H-imidazole-5-carboxylic Acid], the “IC50 (human PHD2 binding inhibitory activity)” value on human PHD2184-418 is “inhibited binding between PHD2 and HIF-1α”. At human PHD2184-418 (read-out: IC50 (human PHD2 binding inhibitory activity)), the IC50 (in general, the concentration that gives 50% inhibition) stood at 180 nM. The “C/P: ratio of Colon and Plasma” value in data set [1] is listed as “higher concentration in the large intestine tissue than the concentration in the plasma”. Further, the “Colon: concentration of the test compound in the large intestine tissue” value in data set [1] (distal large intestine) is listed as 164 ng/g. In addition, the Kp in data set [1] (male, rat, large intestine tissue / plasma, read-out: C/P: ratio of Colon and Plasma) is above 164. For the same compound, the concentration at 8 h in data set [1] (male, rat, plasma, 8 hours, read-out: Plasma: plasma test compound concentration after 8 hours) is below 1 ng/mL. The AUC in data set [1] (male, rat, plasma, read-out: AUC: area under the plasma test compound concentration-time curve (converted)) is 1.95 ng·h/mL. Moreover, in data set [1] (male, rat, plasma, read-out: Cmax: maximum plasma concentration of the test compound), the Cmax came to 1 ng/mL. The “Inhibition (%): suppressive rate on the intestinal permeability” value in data set [2] is reported as 101%; in data set [2] (listed as compound 1), “suppressed”.

As for `Cn1c(C(=O)O)cnc1CN1CC[C@H](n2c(=O)n(-c3ccc(-c4ccc(C(=O)O)cc4)nc3)c3cccnc32)C1` [Crystal form I of the compound 1], in data set [3], the “Amount of the mass change of the compound 1” value is recorded as “No change”; the Properties result was “White powder, no change”; the Crystal form change result is “No change”.

For `Cn1c(C(=O)O)cnc1CN1CC[C@H](n2c(=O)n(-c3ccc(-c4ccc(C(=O)O)cc4)nc3)c3cccnc32)C1` [Crystal form II of the compound 1], in data set [3], the “Amount of the mass change of the compound 1” value is recorded as −0.03%; the Properties result is listed as “White powder, no change”; the Crystal form change result was “No change”.

With `Cn1c(C(=O)O)cnc1CN1CC[C@H](n2c(=O)n(-c3ccc(-c4ccc(C(=O)O)cc4)nc3)c3cccnc32)C1` [Crystal form III of the compound 1], in data set [3], the “Amount of the mass change of the compound 1” value is reported as −0.04%; the Properties result was “White powder, no change”; the Crystal form change entry is “No change”.
